{"source": "patent US20180306790A1", "about": "“USE OF EB1 AS A BIOMARKER OF DRUG RESPONSE” (BASILEA PHARMACEUTICA INTERNATIONAL AG, priority 2015, published 2018)", "key": {"[1]": {"system": "GBM9 CSCs", "test": "Transwell cell migration assay", "type": "cell-based, human", "details": "5 hours transmigration", "description": "(§1) Stem cells (50′000) were poured on the upper side of a transwell migration chamber ([…] filter, BD) in DMEM. The lower side of the chamber was filled with DMEM, supplemented with 10% FCS. Cells were allowed to transmigrate for 5 hours and then chambers were removed. […] After washing and drying, pictures of six fields per condition were imaged at a magnification of 10× and transmigrated cells were counted."}, "[2]": {"system": "GBM6 CSCs", "test": "Transwell cell migration assay", "type": "cell-based, human", "description": "as §1"}, "[3]": {"system": "GBM9 CSCs", "test": "Cytotoxic assay (sulforhodamine B growth inhibition, 72 hours)", "type": "cell-based, human", "details": "at least three independent experiments, read-out: EC50 +/− SEM, cytotoxic activity", "description": "(§2) Cells (5000 cells/well) were seeded in previously poly-DL-ornithine (Sigma-Aldrich) coated 96-well plates (10 μg/mL) and allowed to grow for 24 hours before treatment with BAL27862. Growth inhibition of cells was measured after 72 hours by using a sulforhodamine B assay kit (Sigma-Aldrich). Cell density was analyzed using a microplate reader (Labsystems Multiscan, Thermo, Villebon sur Yvette, France) and analysis of EC50 were performed with GraphPad 5.0 statistical software (GraphPad Software, La Jolla, USA). At least three independent experiments were performed."}, "[4]": {"system": "GBM6 CSCs", "test": "Cytotoxic assay (sulforhodamine B growth inhibition, 72 hours)", "type": "cell-based, human", "details": "at least three independent experiments, read-out: EC50 +/− SEM, cytotoxic activity", "description": "as §2"}, "[5]": {"system": "GBM6 CSCs", "test": "FACS analysis of A2B5 positive GBM6 brain tumor CSCs in vitro", "type": "cell-based, human", "details": "6 nM, 72 hours", "description": "GBM6 cells were seeded at 300′000 cells/well into poly-DL-ornithine-coated 6-well plates (10 μg/mL)(Sigma-Aldrich), in stem cell-permissive medium (5 mg/mL Insulin, 0.1 mM Putrescine, […] Transferrin, 2.10^−8M Progesterone, 50 mg/mL Penicillin-Streptomycin and growth factors including 10 ng/mL basic fibroblast growth factor (bFGF), 20 ng/mL epidermal growth factor (EGF) and B27). One day later, cells were treated with BAL27862 for 72 hours. Then, cells were trypsinized, suspended in Hanks' Balanced Salt Solution (HBSS) buffer (Life technologies) containing blocking solution (Miltenyi Biotec) and incubated with A2B5-APC (clone 105HB29, reference 130-093-582) and CD133-PE (clone 293C3, reference 130-090-853) antibodies (Miltenyi Biotec) for 10 minutes. Cells were then fixed with 10% paraformaldehyde (Sigma-Aldrich) for 20 minutes and analyzed using flow cytometry (FACS Calibur™ BD Biosciences). A total of 100′000 events were counted for each sample and data were recorded with the CellQuest Pro Software (BD Biosciences) and analyzed using FlowJo software (Tree Star Inc., San Carlos, Calif.) and the Dean-Jet-Fox model analysis."}, "[6]": {"system": "GBM6 CSCs", "test": "Self-renewal capacity determination (sphere formation)", "type": "cell-based, human", "details": "6 nM, 72 hours", "description": "GBM6 cells were seeded in previously poly-DL-ornithine (Sigma-Aldrich) coated 6-well plates (150′000 cells/well). After 24 hours, cells were treated or not with BAL27862 for 72 hours. At the end of treatment, the supernatant was removed and cells were harvested, dissociated into single cells and plated in 96-well plates (1-5 cells/well). Eight days later, the spheres were counted under an inverted light microscope (Leica DMI 4000B) (Leica, Saint Jorioz, France). Three independent experiments were performed."}, "[7]": {"system": "GBM6 CSCs", "test": "Clonogenic survival assay", "type": "cell-based, human", "details": "6 and 10 nM, 72 hours", "description": "Cells were grown in previously poly-DL-ornithine (Sigma-Aldrich) coated 6-well plates (1000 cells/well) and after treatment for 72 hours with BAL27862, incubated for up to 5 days. Colonies were stained with 1% Crystal-violet solution in 20% methanol (Sigma-Aldrich). The colonies with more than 50 cells were counted. At least three independent experiments were performed."}, "[8]": {"system": "orthotopic GBM6 tumors", "test": "Orthotopic GBM6 xenografts, tumor volume by three-dimensional brain reconstruction", "type": "in vivo, mouse", "details": "25 mg/kg i.v. days 30/33/36, day 45", "description": "(§3) Approximately 100′000 cells of GBM6 GFP sh0 or shEB1 cells were stereotactically injected into the subventricular zone (0.5 mm anterior to bregma, −1 mm lateral, and −2.1 mm deep to the cortex surface) of 6-week-old athymic Nude mice. Grafted mice were intravenously treated with 25 mg/kg BAL101553 (three times at 30, 33 and 36 days after glioma implantation) or with vehicle (control). Forty five days after implantation, three animals of each group were sacrificed for analysis of tumor volumes (by three-dimensional brain reconstructions) or for FACS analysis.\nFor analysis of tumor volumes, mice were anesthetized and perfused with 4% paraformaldehyde. Brains were removed and fixed in 4% paraformaldehyde for 2 days at 4° C., then rinsed and conserved in PBS until dissection. Brains were entirely cut into 50-100-μm-thick sections using Vibratome (Leica) following the sagittal axis. A total of 60 sections per brain were obtained. Mapping and analysis of GFP-injected cells and tumors were performed by using a Leica DMLB fluorescence microscope, a Leica DC300F digital camera, and the Leica FW4000 imaging software (Leica). Three-dimensional brain reconstructions were obtained using FreeD software (Andrey P., Free-D: an integrated environment for three-dimensional reconstruction from serial sections. Journal of Neuroscience Methods. 2005; 145(1-2):233-244). […]"}, "[9]": {"system": "orthotopic GBM6 tumors", "test": "FACS analysis of A2B5 brain tumor cancer stem cells from orthotopic GBM6 tumors", "type": "in vivo, mouse", "details": "25 mg/kg i.v. days 30/33/36, day 45", "description": "as §3\nAfter anesthesia, animals were perfused with PBS, and brains were removed and stored in HBSS buffer containing 2% FBS. Cells were dissociated in a cocktail of enzymes (DNase I (Roche, Rotkreuz, Switzerland), Collagenase D (Roche) and V (Sigma-Aldrich) with GentleMACS dissociator (Miltenyi Biotech)). The reaction was stopped by adding DMEM containing 10% FCS. The suspension was filtered and cells were resuspended in 40% Percoll (Sigma-Aldrich). After centrifugation, myelin was removed and cells were resuspended in HBSS buffer containing 2% FCS. Cells were incubated in HBSS containing 2% FCS with A2B5-APC and CD133-PE antibodies for 10 minutes. Cells were then fixed with 10% paraformaldehyde for 20 minutes and analyzed using flow cytometry. A total of 100′000 events were counted for each sample and data were recorded with the CellQuest Pro Software and analyzed using FlowJo software choosing the Dean-Jet-Fox model analysis."}, "[10]": {"details": "GBM6 GFP shEB1 (EB1 downregulated)"}, "[11]": {"details": "GBM6 GFP sh0 (normal EB1 levels)"}}, "note": "pEC50: −log10 of the molar value. Read-outs that look alike come from different tables or passages of the source.", "data": [{"smiles": "N#CCCNc1nonc1-c1nc2ccccc2n1CC(=O)c1ccc(N)cc1", "note": "[BAL27862, 3-(4-{1-[2-(4-amino-phenyl)-2-oxo-ethyl]-1H-benzoimidazol-2-yl}-furazan-3-ylamino)-propionitrile]", "values": [{"measurement": "inhibition of cell migration", "setting": "[1]; GBM9, cytotoxic 20 nM", "result": "drastically inhibited the migration"}, {"measurement": "inhibition of cell migration", "setting": "[1]; GBM9, non-cytotoxic 6 nM", "result": "did not respond"}, {"measurement": "inhibition of cell migration", "setting": "[2]; EB1 downregulated GBM6 cells (shEB1), 6 nM", "result": "inhibitory effect of BAL27862 treatment was drastically reduced"}, {"measurement": "inhibition of cell migration", "setting": "[2]; GBM6, cytotoxic 20 nM, 5 hours transmigration", "result": "drastically inhibited the migration"}, {"measurement": "inhibition of cell migration", "setting": "[2]; GBM6, non-cytotoxic 6 nM, 5 hours transmigration", "result": "statistically significant inhibition of cell migration"}, {"measurement": "inhibition of cell migration", "setting": "[2]; control EB1-expressing GBM6 cells, 6 nM", "result": "statistically significant inhibition of cell migration"}, {"measurement": "pEC50", "setting": "[3]; Homo sapiens, 72 h", "result": "~7.70"}, {"measurement": "pEC50", "setting": "[3]", "result": 7.66}, {"measurement": "pEC50", "setting": "[4]; Homo sapiens, GBM6, 72 h", "result": "~7.70"}, {"measurement": "pEC50", "setting": "[4]", "result": 7.68}, {"measurement": "A2B5 positive cell number", "setting": "[5]; GBM6 GFP sh0 (EB1 expressed)", "result": "significant inhibition"}, {"measurement": "A2B5 positive cell number", "setting": "[5]; [10]", "result": "less sensitive"}, {"measurement": "sphere formation", "setting": "[6]; [11]", "result": "interferes statistically significantly with sphere formation"}, {"measurement": "sphere formation", "setting": "[6]; [10]", "result": "suppresses the inhibitory activity of BAL27862"}, {"measurement": "sphere formation", "setting": "[6]; GBM6 wild-type", "result": "interferes statistically significantly with sphere formation"}, {"measurement": "clonogenic capacity (colony formation)", "setting": "[7]; [11]", "result": "impaired the clonogenic capacity of GBM6 CSCs at the sub-toxic doses of 6 and 10 nM in a statistically significant manner"}, {"measurement": "clonogenic capacity (colony formation)", "setting": "[7]; GBM6 GFP shEB1 (EB1 levels downregulated)", "result": "only in the EB1-expressing cells"}]}, {"smiles": "N#CCCNc1nonc1-c1nc2ccccc2n1CC(=O)c1ccc(NC(=O)[C@@H](N)CCCCN)cc1", "note": "[BAL101553]", "values": [{"measurement": "tumor mass (size) and tumor spreading versus vehicle", "setting": "[8]; GBM6 GFP sh0 (EB1-expressing) tumors", "result": "clear reduction of the tumor mass (size) and in tumor spreading"}, {"measurement": "tumor mass (size) and tumor spreading versus vehicle", "setting": "[8]; GBM6 GFP shEB1 (EB1 negative) tumors", "result": "minimal"}, {"measurement": "proportion of A2B5 positive GBM6 cells", "setting": "[9]; EB1 downregulated GBM6 tumors", "result": "~80", "unit": "%"}, {"measurement": "proportion of A2B5 negative GBM6 cells", "setting": "[9]; EB1 expressing GBM6 tumors", "result": 80, "unit": "%"}, {"measurement": "proportion of A2B5 positive GBM6 cells", "setting": "[9]; EB1 expressing GBM6 tumors", "result": 20, "unit": "%"}]}]}
